{"source": "the NIST ThermoML archive (doi:10.1021/je7003929)", "test": "xn = mol fraction of the nth substance listed", "details": "Liquid, Vibrating tube method", "note": "± gives the expanded uncertainty stated by the source."}
{"smiles": "c1ccc2sccc2c1", "note": "[benzo[b]thiophene] + CCCCCC", "values": [{"measurement": "mass density", "setting": "352.63 K, 11024 kPa, x2 = 0.4495", "result": "884.5 ± 0.5", "unit": "kg/m3"}, {"measurement": "mass density", "setting": "352.63 K, 12013 kPa, x2 = 0.4495", "result": "885.4 ± 0.5", "unit": "kg/m3"}, {"measurement": "mass density", "setting": "352.63 K, 13038 kPa, x2 = 0.4495", "result": "886.4 ± 0.5", "unit": "kg/m3"}, {"measurement": "mass density", "setting": "352.63 K, 14000 kPa, x2 = 0.4495", "result": "887.3 ± 0.5", "unit": "kg/m3"}, {"measurement": "mass density", "setting": "352.63 K, 15021 kPa, x2 = 0.4495", "result": "888.2 ± 0.5", "unit": "kg/m3"}, {"measurement": "mass density", "setting": "352.63 K, 16012 kPa, x2 = 0.4495", "result": "889.1 ± 0.5", "unit": "kg/m3"}, {"measurement": "mass density", "setting": "352.63 K, 17010 kPa, x2 = 0.4495", "result": "890 ± 0.5", "unit": "kg/m3"}, {"measurement": "mass density", "setting": "352.63 K, 18015 kPa, x2 = 0.4495", "result": "890.9 ± 0.5", "unit": "kg/m3"}, {"measurement": "mass density", "setting": "352.63 K, 19022 kPa, x2 = 0.4495", "result": "891.8 ± 0.5", "unit": "kg/m3"}, {"measurement": "mass density", "setting": "352.63 K, 20005 kPa, x2 = 0.4495", "result": "892.7 ± 0.5", "unit": "kg/m3"}, {"measurement": "mass density", "setting": "362.31 K, 1028 kPa, x2 = 0.9432", "result": "620.3 ± 0.5", "unit": "kg/m3"}, {"measurement": "mass density", "setting": "362.31 K, 2031 kPa, x2 = 0.9432", "result": "622.2 ± 0.5", "unit": "kg/m3"}, {"measurement": "mass density", "setting": "362.31 K, 3031 kPa, x2 = 0.9432", "result": "624 ± 0.5", "unit": "kg/m3"}, {"measurement": "mass density", "setting": "362.31 K, 4012 kPa, x2 = 0.9432", "result": "625.7 ± 0.5", "unit": "kg/m3"}, {"measurement": "mass density", "setting": "362.31 K, 5026 kPa, x2 = 0.9432", "result": "627.4 ± 0.5", "unit": "kg/m3"}, {"measurement": "mass density", "setting": "362.31 K, 6013 kPa, x2 = 0.9432", "result": "629.1 ± 0.5", "unit": "kg/m3"}, {"measurement": "mass density", "setting": "362.31 K, 7022 kPa, x2 = 0.9432", "result": "630.7 ± 0.5", "unit": "kg/m3"}, {"measurement": "mass density", "setting": "362.31 K, 8014 kPa, x2 = 0.9432", "result": "632.3 ± 0.5", "unit": "kg/m3"}, {"measurement": "mass density", "setting": "362.31 K, 9000 kPa, x2 = 0.9432", "result": "633.7 ± 0.5", "unit": "kg/m3"}, {"measurement": "mass density", "setting": "362.31 K, 10011 kPa, x2 = 0.9432", "result": "635.3 ± 0.5", "unit": "kg/m3"}, {"measurement": "mass density", "setting": "362.31 K, 11007 kPa, x2 = 0.9432", "result": "636.7 ± 0.5", "unit": "kg/m3"}, {"measurement": "mass density", "setting": "362.31 K, 12007 kPa, x2 = 0.9432", "result": "638.2 ± 0.5", "unit": "kg/m3"}, {"measurement": "mass density", "setting": "362.31 K, 13008 kPa, x2 = 0.9432", "result": "639.6 ± 0.5", "unit": "kg/m3"}, {"measurement": "mass density", "setting": "362.31 K, 14024 kPa, x2 = 0.9432", "result": "640.9 ± 0.5", "unit": "kg/m3"}, {"measurement": "mass density", "setting": "362.31 K, 15002 kPa, x2 = 0.9432", "result": "642.3 ± 0.6", "unit": "kg/m3"}, {"measurement": "mass density", "setting": "362.31 K, 16016 kPa, x2 = 0.9432", "result": "643.6 ± 0.6", "unit": "kg/m3"}, {"measurement": "mass density", "setting": "362.31 K, 17000 kPa, x2 = 0.9432", "result": "644.9 ± 0.6", "unit": "kg/m3"}, {"measurement": "mass density", "setting": "362.31 K, 18008 kPa, x2 = 0.9432", "result": "646.3 ± 0.6", "unit": "kg/m3"}, {"measurement": "mass density", "setting": "362.31 K, 19018 kPa, x2 = 0.9432", "result": "647.5 ± 0.6", "unit": "kg/m3"}, {"measurement": "mass density", "setting": "362.31 K, 20028 kPa, x2 = 0.9432", "result": "648.8 ± 0.6", "unit": "kg/m3"}, {"measurement": "mass density", "setting": "362.33 K, 1020 kPa, x2 = 0.7491", "result": "715.3 ± 0.5", "unit": "kg/m3"}, {"measurement": "mass density", "setting": "362.33 K, 2034 kPa, x2 = 0.7491", "result": "716.8 ± 0.5", "unit": "kg/m3"}, {"measurement": "mass density", "setting": "362.33 K, 3013 kPa, x2 = 0.7491", "result": "718.3 ± 0.5", "unit": "kg/m3"}, {"measurement": "mass density", "setting": "362.33 K, 4007 kPa, x2 = 0.7491", "result": "719.7 ± 0.5", "unit": "kg/m3"}, {"measurement": "mass density", "setting": "362.33 K, 5015 kPa, x2 = 0.7491", "result": "721.2 ± 0.5", "unit": "kg/m3"}, {"measurement": "mass density", "setting": "362.33 K, 6018 kPa, x2 = 0.7491", "result": "722.5 ± 0.5", "unit": "kg/m3"}, {"measurement": "mass density", "setting": "362.33 K, 7015 kPa, x2 = 0.7491", "result": "723.9 ± 0.5", "unit": "kg/m3"}, {"measurement": "mass density", "setting": "362.33 K, 8017 kPa, x2 = 0.7491", "result": "725.2 ± 0.5", "unit": "kg/m3"}, {"measurement": "mass density", "setting": "362.33 K, 9024 kPa, x2 = 0.7491", "result": "726.5 ± 0.5", "unit": "kg/m3"}, {"measurement": "mass density", "setting": "362.33 K, 10010 kPa, x2 = 0.7491", "result": "727.8 ± 0.5", "unit": "kg/m3"}, {"measurement": "mass density", "setting": "362.33 K, 10996 kPa, x2 = 0.7491", "result": "729.1 ± 0.5", "unit": "kg/m3"}, {"measurement": "mass density", "setting": "362.33 K, 12027 kPa, x2 = 0.7491", "result": "730.4 ± 0.5", "unit": "kg/m3"}, {"measurement": "mass density", "setting": "362.33 K, 13022 kPa, x2 = 0.7491", "result": "731.6 ± 0.5", "unit": "kg/m3"}, {"measurement": "mass density", "setting": "362.33 K, 14016 kPa, x2 = 0.7491", "result": "732.8 ± 0.5", "unit": "kg/m3"}, {"measurement": "mass density", "setting": "362.33 K, 15023 kPa, x2 = 0.7491", "result": "734 ± 0.5", "unit": "kg/m3"}, {"measurement": "mass density", "setting": "362.33 K, 16012 kPa, x2 = 0.7491", "result": "735.1 ± 0.5", "unit": "kg/m3"}, {"measurement": "mass density", "setting": "362.33 K, 17011 kPa, x2 = 0.7491", "result": "736.3 ± 0.5", "unit": "kg/m3"}, {"measurement": "mass density", "setting": "362.33 K, 18012 kPa, x2 = 0.7491", "result": "737.4 ± 0.5", "unit": "kg/m3"}, {"measurement": "mass density", "setting": "362.33 K, 19030 kPa, x2 = 0.7491", "result": "738.6 ± 0.5", "unit": "kg/m3"}, {"measurement": "mass density", "setting": "362.33 K, 20017 kPa, x2 = 0.7491", "result": "739.7 ± 0.5", "unit": "kg/m3"}, {"measurement": "mass density", "setting": "362.5 K, 1028 kPa, x2 = 0.4495", "result": "864.8 ± 0.5", "unit": "kg/m3"}, {"measurement": "mass density", "setting": "362.5 K, 2025 kPa, x2 = 0.4495", "result": "866 ± 0.5", "unit": "kg/m3"}, {"measurement": "mass density", "setting": "362.5 K, 3020 kPa, x2 = 0.4495", "result": "867.1 ± 0.5", "unit": "kg/m3"}, {"measurement": "mass density", "setting": "362.5 K, 4000 kPa, x2 = 0.4495", "result": "868.2 ± 0.5", "unit": "kg/m3"}, {"measurement": "mass density", "setting": "362.5 K, 5045 kPa, x2 = 0.4495", "result": "869.3 ± 0.5", "unit": "kg/m3"}, {"measurement": "mass density", "setting": "362.5 K, 6017 kPa, x2 = 0.4495", "result": "870.4 ± 0.5", "unit": "kg/m3"}, {"measurement": "mass density", "setting": "362.5 K, 7018 kPa, x2 = 0.4495", "result": "871.5 ± 0.5", "unit": "kg/m3"}, {"measurement": "mass density", "setting": "362.5 K, 8013 kPa, x2 = 0.4495", "result": "872.5 ± 0.5", "unit": "kg/m3"}, {"measurement": "mass density", "setting": "362.5 K, 9024 kPa, x2 = 0.4495", "result": "873.6 ± 0.5", "unit": "kg/m3"}, {"measurement": "mass density", "setting": "362.5 K, 10011 kPa, x2 = 0.4495", "result": "874.6 ± 0.5", "unit": "kg/m3"}, {"measurement": "mass density", "setting": "362.5 K, 11008 kPa, x2 = 0.4495", "result": "875.6 ± 0.5", "unit": "kg/m3"}, {"measurement": "mass density", "setting": "362.5 K, 12025 kPa, x2 = 0.4495", "result": "876.6 ± 0.5", "unit": "kg/m3"}, {"measurement": "mass density", "setting": "362.5 K, 13004 kPa, x2 = 0.4495", "result": "877.6 ± 0.5", "unit": "kg/m3"}, {"measurement": "mass density", "setting": "362.5 K, 14014 kPa, x2 = 0.4495", "result": "878.6 ± 0.5", "unit": "kg/m3"}, {"measurement": "mass density", "setting": "362.5 K, 15011 kPa, x2 = 0.4495", "result": "879.6 ± 0.5", "unit": "kg/m3"}, {"measurement": "mass density", "setting": "362.5 K, 16027 kPa, x2 = 0.4495", "result": "880.6 ± 0.5", "unit": "kg/m3"}, {"measurement": "mass density", "setting": "362.5 K, 17017 kPa, x2 = 0.4495", "result": "881.5 ± 0.5", "unit": "kg/m3"}, {"measurement": "mass density", "setting": "362.5 K, 18030 kPa, x2 = 0.4495", "result": "882.5 ± 0.5", "unit": "kg/m3"}, {"measurement": "mass density", "setting": "362.5 K, 19022 kPa, x2 = 0.4495", "result": "883.4 ± 0.5", "unit": "kg/m3"}, {"measurement": "mass density", "setting": "362.5 K, 20002 kPa, x2 = 0.4495", "result": "884.3 ± 0.5", "unit": "kg/m3"}]}
